Laboratory results taken from US8785499B2 (priority 2009, dated 2014).
Where two headings read alike, the source gives them in different places.

Assays:
[1] = biological target: ecNadD (Escherichia coli (strain K12), UniProt P0A752); experiment: biochemical; assay type: biochemical; conditions: for inhibition at 100 µM: read-out: INHIBITION (%) E. coli; for IC50: IC50 ecNadD
[2] = biological target: baNadD (Bacillus anthracis, UniProt C3L5T6); experiment: biochemical; assay type: biochemical; conditions: for inhibition at 50 µM: read-out: INHIBITION (%) B. anthracis
Chain of baNadD (C3L5T6 whole entry, looked up): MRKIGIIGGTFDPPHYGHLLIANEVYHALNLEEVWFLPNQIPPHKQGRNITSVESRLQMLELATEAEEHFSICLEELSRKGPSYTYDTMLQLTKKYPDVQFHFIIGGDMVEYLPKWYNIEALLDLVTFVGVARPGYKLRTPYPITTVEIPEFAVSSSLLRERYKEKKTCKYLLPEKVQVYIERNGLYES

Row | Structure (SMILES) | […]. coli [1] [%] | […]. anthracis [2] [%] | also measured
1 | NS(=O)(=O)c1ccc(NC(=O)CSc2ncn(-c3ccccc3)n2)cc1 [compound 205] | 0 | 40 | –
2 | O=C(O)C1=C(c2cc([N+](=O)[O-])ccc2O)N=S=N1 [compound 159] | 4 | 1 | –
3 | Br.Cn1ccnc1SCC(=O)c1ccccc1 [compound 113] | 8 | 12 | –
4 | Cc1ccc(NS(=O)(=O)c2coc(C(N)=O)c2)cc1F [compound 243] | 0 | 0 | –
5 | Nc1nnc(SCC(=O)Nc2ccc(Cl)c(Cl)c2)s1 [compound 263] | 0 | 0 | –
6 | NS(=O)(=O)c1ccc(CCNC(=O)c2cccc(Cl)c2)cc1 [compound 048] | 16 | 14 | –
7 | N#CCc1ccc(NC(=O)/C=C/c2ccc([N+](=O)[O-])o2)cc1 [compound 233] | 0 | 8 | –
8 | CC(C)COC1CS(=O)(=O)CC1OCC(C)C (stereo not shown) [compound 223] | 0 | 20 | –
9 | NS(=O)(=O)c1ccc(N/C=C/C(=O)c2ccc(Cl)s2)cc1 [compound 021] | 24 | 79 | –
10 | Cc1ccc(-c2nnc(SCC(=O)O)[nH]2)cc1 [compound 160] | 4 | 0 | –
11 | O=C(O)CSc1nc(=O)cc(-c2ccccc2)[nH]1 [compound 176] | 3 | 0 | –
12 | Cc1ccc(S(=O)(=O)/N=C(\N)c2ccc(F)cc2)cc1 [compound 162] | 4 | 0 | –
13 | O=C(O)/C=C/c1ccncc1 [compound 148] | 5 | 4 | –
14 | O=C(O)C1C2C=CC(C2)C1C(=O)Nc1ccc(Cl)c(Cl)c1 (stereo not shown) [compound 152] | 5 | 0 | –
15 | O=C(Cn1cnc2ccccc2c1=O)Nc1nccs1 [compound 145] | 6 | 0 | –
16 | Cc1cc(Nc2cccc(C(=O)O)c2)n2ncnc2n1 [compound 014] | 30 | 0 | –
17 | O=C(CCC(=O)Nc1ccc(Br)cc1)N/N=C/c1ccc(Br)cc1 [01_09] | – | – | inhibition at 100 µM [1]: 74%; inhibition at 50 µM [2]: 68%
18 | O=[N+]([O-])/C=C/Nc1cccc([N+](=O)[O-])c1 [compound 061] | 14 | 0 | –
19 | Nc1c(C(=O)Nc2c(Cl)cccc2Cl)sc2nc(-c3cccnc3)ccc12 [03_20] | – | – | IC50 [1]: > 200 µM; inhibition at 100 µM [1]: 24%; IC50 ([2]; IC50 baNadD): > 200 µM; inhibition at 50 µM [2]: 11%
20 | O=C(CSc1ccccc1)Nc1cc(C(=O)O)cc(C(=O)O)c1 [compound 236] | 0 | 0 | –

Row | Structure (SMILES) | […]. coli [1] [%] | […]. anthracis [2] [%] | also measured
21 | Nc1c(C(=O)Nc2cc(F)ccc2F)sc2nc(-c3cccs3)ccc12 [03_01] | – | – | INHIBITION (%) E. coli [1]: 100% 25; IC50 [1]: 25 µM; INHIBITION (%) B. anthracis [2]: 100% 25; IC50 ([2]; IC50 baNadD): 25 µM
22 | O=c1[nH]c2ccc(/N=C/c3cc(Cl)ccc3O)cc2[nH]1 [compound 135] | 6 | 10 | –
23 | Cc1ccc(-c2nnc(SCC(=O)O)o2)cc1 [compound 201] | 0 | 25 | –
24 | O=C(Nc1ncnc2[nH]cnc12)c1ccccc1 [compound 112] | 8 | 0 | –
25 | Cn1c(SCC(N)=O)nnc1-c1ccc(Br)cc1 [compound 286] | 0 | 0 | –
26 | Cc1c(NC(=O)CSS(=O)(=O)O)c(=O)n(-c2ccccc2)n1C [compound 023] | 24 | 34 | –
27 | Clc1ccc(CNc2nc[nH]n2)cc1 [compound 305] | 0 | 0 | –
28 | O=C1Nc2ccccc2/C1=C/Nc1cccc(Cl)c1 [15_07] | – | – | inhibition at 100 µM [1]: 15%; inhibition at 50 µM [2]: 45%
29 | O=C(CSC(=O)c1ccccc1)Nc1ccc(Cl)cn1 [compound 177] | 3 | 21 | –
30 | CC(C)c1ccc(N/C=C2\C(=O)Nc3ccccc32)cc1 [15_30] | – | – | inhibition at 100 µM [1]: 7%; inhibition at 50 µM [2]: 42%
31 | Cc1nnc(N/N=C/c2ccccc2C(=O)O)nc1O [compound 267] | 0 | 4 | –
32 | Cc1ccc(N/C=C2\C(=O)Nc3ccccc32)cc1Cl [15_01] | – | – | IC50 [1]: > 200 µM; inhibition at 100 µM [1]: 24%; IC50 ([2]; IC50 baNadD): > 200 µM; inhibition at 50 µM [2]: 37%
33 | NS(=O)(=O)c1ccc(/N=C/c2ccc(Cl)cc2Cl)cc1 [compound 118] | 8 | 0 | –
34 | COC(=O)CSc1nnc(-c2ccc(Cl)cc2Cl)o1 [compound 274] | 0 | 0 | –
35 | CCn1c(SCC(N)=O)nnc1-c1ccc(Cl)cc1 [compound 065] | 14 | 0 | –
36 | NS(=O)(=O)c1ccc(NCc2cccc(Cl)c2Cl)cc1 [compound 157] | 5 | 0 | –
37 | O=C(O)C1CCCN(S(=O)(=O)c2cccc([N+](=O)[O-])c2)C1 (stereo not shown) [compound 227] | 0 | 0 | –
38 | N/N=C/c1c(Cl)cccc1Cl [compound 191] | 1 | 5 | –
39 | N#CC1=C(N)OC(c2cccs2)=C(C#N)C1c1cccs1 (stereo not shown) [compound 019] | 26 | 27 | –
40 | O=C(O)c1nccnc1C(=O)Nc1ccc(Br)cc1 [compound 031] | 21 | 4 | –

Row | Structure (SMILES) | […]. coli [1] [%] | […]. anthracis [2] [%] | also measured
41 | Nc1c(C(=O)Nc2ccc(F)c(Cl)c2)sc2nc(-c3ccncc3)ccc12 [03_22] | – | – | IC50 [1]: 100 µM; inhibition at 100 µM [1]: 21%; IC50 ([2]; IC50 baNadD): 39 µM; inhibition at 50 µM [2]: 83%
42 | O=C(CCC(=O)Nc1cccc(Br)c1)N/N=C/c1ccc(I)cc1 [01_17] | – | – | inhibition at 100 µM [1]: 41%; inhibition at 50 µM [2]: 35%
43 | Cc1cccc(N/C=C2\C(=O)Nc3ccccc32)c1C [15_10] | – | – | inhibition at 100 µM [1]: 13%; inhibition at 50 µM [2]: 26%
44 | O=C1Nc2ccccc2/C1=C/Nc1ccc(F)cc1F [15_22] | – | – | inhibition at 100 µM [1]: 10%; inhibition at 50 µM [2]: 28%
45 | O=C1Nc2ccccc2/C1=C/NCc1cccnc1 [15_05] | – | – | inhibition at 100 µM [1]: 17%; inhibition at 50 µM [2]: 23%
46 | Nc1nnc(SCc2ccccc2Cl)s1 [compound 104] | 9 | 29 | –
47 | Oc1c(Cl)cc(Cl)cc1/C=N/c1nc[nH]n1 [compound 038] | 20 | 0 | –
48 | CSc1cccc(NS(=O)(=O)c2ccc(F)cc2)c1 [compound 208] | 0 | 0 | –
49 | O=C1Nc2ccccc2/C1=C/Nc1ccc(Br)cc1F [compound 015] | – | – | IC50 [1]: 30 µM; inhibition at 100 µM [1]: 29%; IC50 ([2]; IC50 baNadD): 16 µM; inhibition at 50 µM [2]: 57%
50 | O=C(O)CSc1cccc(SCC(=O)O)c1 [compound 293] | 0 | 5 | –
51 | NS(=O)(=O)c1ccc(NC(=S)NCc2ccccc2)cc1 [compound 085] | 11 | 0 | –
52 | O=C(O)c1cc(/N=C/c2ccc3c(c2)OCO3)ccc1O [compound 119] | 8 | 0 | –
53 | NS(=O)(=O)c1ccc(N/C=C2\C(=O)Oc3ccccc3C2=O)cc1 [compound 218] | 0 | 0 | –
54 | Nc1nn(S(=O)(=O)c2ccccc2)cc1-c1ccc(Cl)cc1 [compound 237] | 0 | 0 | –
55 | O=C(CCC(=O)Nc1cccc(Br)c1)N/N=C/c1c2ccccc2cc2ccccc12 [01_01] | – | – | IC50 [1]: 6 µM; inhibition at 100 µM [1]: 90%; IC50 ([2]; read-out: IC50 baNadD): 4 µM; inhibition at 50 µM [2]: 81%
56 | Cc1ccc(C(=O)Nc2nc3ccc(Br)cc3s2)o1 [compound 123] | 7 | 0 | –
57 | O=C(O)c1ccc(/C=N/NC(=O)c2cc3cc(Br)ccc3o2)cc1 [compound 172] | 3 | 32 | –
58 | Nc1c(C(=O)Nc2cc(Cl)cc(Cl)c2)sc2nc(-c3ccncc3)ccc12 [03_28] | – | – | inhibition at 100 µM [1]: 0%; inhibition at 50 µM [2]: 0%
59 | CCCn1cc(C(CC(=O)O)C(=O)O)c2ccccc21 (stereo not shown) [compound 110] | 9 | 0 | –
